The record followed here is ChEMBL document CHEMBL1909599, “Synthesis and anti-HIV-1 activity of 4-substituted-7-(2'-deoxy-2'-fluoro-4'-azido-β-D-ribofuranosyl)pyrrolo[2,3-d]pyrimidine analogues” (Bioorg Med Chem Lett, 2011).

In the experiment the test system is Human immunodeficiency virus 1. Put plainly: Antiviral activity against Human immunodeficiency virus 1 assessed as inhibition of viral replication by MTT assay. In kind it is functional, organism-based.
Take `[N-]=[N+]=N[C@]1(CO)O[C@@H](n2cc(F)c3c(N)ncnc32)[C@@H](F)[C@@H]1O`: the EC50 (usually the concentration at which the effect is half-maximal) was determined as 5400 nM.
The same measure for `Cc1cn([C@H]2C[C@H](N=[N+]=[N-])[C@@H](CO)O2)c(=O)[nH]c1=O` [ZIDOVUDINE]: 84 nM; for `[N-]=[N+]=N[C@]1(CO)O[C@@H](n2ccc3c(N)ncnc32)[C@@H](F)[C@@H]1O`: 500 nM.
`[N-]=[N+]=N[C@]1(CO)O[C@@H](n2ccc3c(O)ncnc32)[C@@H](F)[C@@H]1O`: the EC50 was 13000 nM.
